Assay results from ChEMBL document CHEMBL1157872, “Theoretical models of pentamidine analogs activity based on their DNA minor groove complexes” (Eur J Med Chem, 2010).

What was measured:
[1] = test system: Nucleic Acid
[2] = test system: Nucleic Acid; assay: Binding affinity to d(CGCGATATCGCG)2 dodecamer assessed as change in melting temperature; type: nucleic-acid assay

SMILES | ΔTm [1] [°C] | ΔTm [2] [°C]
CN(CCCCCN(C)c1ccc(C(=N)N)cc1)c1ccc(C(=N)N)cc1 | 1.17 | 1.1
CCN1CCN=C1c1ccc(-c2ccc(-c3ccc(C4=NCCN4CC)cc3)o2)cc1 | 1.9 | 
N=C(N)c1ccc(OCCCCCOc2ccc(C(=N)N)cc2)cc1 | 4.65 | 6.58
c1cc(-c2ccc(-c3ccc(C4=NCCN4)cc3)o2)ccc1C1=NCCN1 | 11.4 | 
Cn1cc(NC(=O)c2cc(NC(=O)CNC(=N)N)cn2C)cc1C(=O)NCCC(=N)N | 31 | 
N=C(N)c1ccc(/N=N/Nc2ccc(C(=N)N)cc2)cc1 |  | 11.9
N=C(N)c1ccc(NCCNCCNc2ccc(C(=N)N)cc2)cc1 | 5.84 | 5.48
CCCNC(=N)c1ccc(-c2ccc(-c3ccc(C(=N)NCCC)cc3)o2)cc1 | 13 | 
N=C(N)c1ccc(OCCOCCOc2ccc(C(=N)N)cc2)cc1 | 2.92 | 4.2
COc1cc(C(=N)N)cc(OC)c1OCCCCCOc1c(OC)cc(C(=N)N)cc1OC | 2.35 | 2.55
N=C(NC1CCCCC1)c1ccc(OCCOCCOc2ccc(C(=N)NC3CCCCC3)cc2)cc1 | 5.08 | 4.3
N=C(N)c1ccc(-c2ccc(-c3ccc(C(=N)N)cc3)o2)cc1 | 11.7 | 
CCCCNC(=N)c1ccc(OCCOCCOc2ccc(C(=N)NCCCC)cc2)cc1 | 3.84 | 3.3
